Assay results reported in article PMC8283759, “A Flavoprotein Dioxygenase Steers Bacterial Tropone Biosynthesis via Coenzyme A-Ester Oxygenolysis and Ring Epoxidation” (Journal of the American Chemical Society, 2021).

Target: T1, TdaEBp (Burkholderia plantarii, UniProt A0A0B6RWE3)
T1 construct: gene BGL_1c08010; heterologously produced and purified, N-terminal GB1 (subunit B of protein G) and C-terminal polyhistidine tag
Assay: UV-vis of purified protein (c280/c450)
Format: binding
Conditions: loosely bound, co-purified; partial occupancy

T1 sequence (A0A0B6RWE3 entry or part of it): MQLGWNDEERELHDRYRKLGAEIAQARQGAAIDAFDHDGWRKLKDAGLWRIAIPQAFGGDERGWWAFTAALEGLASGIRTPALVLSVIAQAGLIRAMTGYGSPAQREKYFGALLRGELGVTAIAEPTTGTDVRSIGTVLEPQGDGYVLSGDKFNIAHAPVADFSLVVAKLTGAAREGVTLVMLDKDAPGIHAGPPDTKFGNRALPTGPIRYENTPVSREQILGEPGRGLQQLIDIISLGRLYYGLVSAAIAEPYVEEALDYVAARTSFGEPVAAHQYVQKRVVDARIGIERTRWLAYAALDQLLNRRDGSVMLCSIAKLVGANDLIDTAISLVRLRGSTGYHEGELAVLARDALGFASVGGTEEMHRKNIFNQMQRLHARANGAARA

SMILES: Cc1cc2nc3c(=O)[nH]c(=O)nc-3n(C[C@H](O)[C@H](O)[C@H](O)COP(=O)(O)OP(=O)(O)OC[C@H]3O[C@@H](n4cnc5c(N)ncnc54)[C@H](O)[C@@H]3O)c2cc1C [FAD]
- UV-vis of purified protein (c280/c450): TdaE^Bp was weakly yellow due to a loosely bound FAD cofactor
